From PMC7300217, “Surfactin Like Broad Spectrum Antimicrobial Lipopeptide Co-produced With Sublancin From Bacillus subtilis Strain A52: Dual Reservoir of Bioactives” (Frontiers in Microbiology, 2020)

Tests used:
[1] = tested on: C. albicans MTCC 1637; test: MIC, microtiter plate dilution assay; format: cell-based, Candida albicans; settings: 5 × 10^5 CFU/ml, 37°C, OD600 after 48 h, triplicate
Experimental: (§1) The antimicrobial activity was tested by well diffusion assay as mentioned earlier ([Singh et al., 2014]). Strain A52 was grown for 24 h in 500 ml of nutrient broth (NB, Hi-media, India) using 1000 ml flask and subsequently cells were removed by centrifugation (10,000 rpm for 15 min at 4°C). Supernatant was filtered through 0.22 μm filter (Millipore, United States) to obtain cell-free fermented broth (CFB) that was used for antimicrobial assay (50 μl) against various indicator strains and the activity was measured as diameter of inhibition zone. Test strains used were Staphylococcus aureus (MTCC 1430), Bacillus subtilis (MTCC 121), B. firmus (MTCC 488), B. licheniformis (MTCC 429), B. thuringiensis (MTCC 1953), Escherichia coli (MTCC 1610), Micrococcus luteus (MTCC 106), Steptococcus pyrogens (MTCC 1928), S. anginosus (MTCC 1929), S. oralis (MTCC 2696), S. mutans (MTCC 497), Candida albicans (MTCC 1637), C. albicans (MTCC 183), C. albicans (MTCC 227), C. tropicalis (MTCC 184), C. glabrata (MTCC 3019), C. haemulonii (MTCC 2766), and C. inconsplicue (MTCC 1074). The phytopathogenic fungi employed in this study were Alternaria brassicicola (MTCC 2102), Colletotrichum acutatum (MTCC 1037), and Fusarium moniliforme (MTCC 158). Clinical isolates of Candida were provided by National Culture Collection of Pathogenic Fungi (NCCPF), PGIMER, Chandigarh, India.
(§2) The minimum inhibitory concentration (MIC) of HPLC purified peptides was evaluated by using microtiter plate dilution assay. The peptide concentration was estimated using BCA protein assay (Thermo Fisher Scientific, United States) method as described by manufacturer. Actively growing test strains (5 × 10^5 CFU/ml) were inoculated in a 96-well plate with different concentrations of the peptides and plates were incubated for 24–48 h at 37°C (final volume in each well is 200 μl). OD was measured at 600 nm after 24 and 48 h for bacteria and yeast, respectively, using ELISA microplate reader (Thermo, United States). MIC against phytopathogenic fungi was determined using 96-well microtiter plate assay ([Kaur et al., 2016]). In 96-well microplates, 100 μl of fungal spore suspension (1 × 10^5 spores/ml) prepared in potato dextrose broth (PDB, Hi-media, India) was mixed with100 μl of fresh PDB containing different concentrations of lipopeptide. Control well contained 100 μl of fungal spore suspension and 100 μl of only medium. The microplates were incubated at 25°C and readings were recorded at 600 nm after 48 h. The lowest concentration showing no growth was considered as MIC. Each test was done in triplicate and optical density (OD600) of peptide treated wells were compared with uninoculated wells (blank medium control).

[2] = tested on: C. albicans 400054 (clinical isolate); test: MIC, microtiter plate dilution assay; format: cell-based, Candida albicans; settings: 5 × 10^5 CFU/ml, 37°C, OD600 after 48 h, triplicate
Experimental: as §1, §2

[3] = tested on: C. albicans MTCC 227; test: MIC, microtiter plate dilution assay; format: cell-based, Candida albicans; settings: 5 × 10^5 CFU/ml, 37°C, OD600 after 48 h, triplicate
Experimental: as §1, §2

[4] = tested on: C. albicans MTCC 183; test: MIC, microtiter plate dilution assay; format: cell-based, Candida albicans; settings: 5 × 10^5 CFU/ml, 37°C, OD600 after 48 h, triplicate
Experimental: as §1, §2

[5] = tested on: B. subtilis MTCC 121; test: MIC, microtiter plate dilution assay; format: cell-based, Bacillus subtilis; settings: 5 × 10^5 CFU/ml, 37°C, OD600 after 24 h, triplicate
Experimental: (§3) The antimicrobial activity was tested by well diffusion assay as mentioned earlier ([Singh et al., 2014]). Strain A52 was grown for 24 h in 500 ml of nutrient broth (NB, Hi-media, India) using 1000 ml flask and subsequently cells were removed by centrifugation (10,000 rpm for 15 min at 4°C). Supernatant was filtered through 0.22 μm filter (Millipore, United States) to obtain cell-free fermented broth (CFB) that was used for antimicrobial assay (50 μl) against various indicator strains and the activity was measured as diameter of inhibition zone. […]
(§4) The minimum inhibitory concentration (MIC) of HPLC purified peptides was evaluated by using microtiter plate dilution assay. […] OD was measured at 600 nm after 24 and 48 h for bacteria and yeast, respectively, using ELISA microplate reader (Thermo, United States). MIC against phytopathogenic fungi was determined using 96-well microtiter plate assay ([Kaur et al., 2016]). […] The microplates were incubated at 25°C and readings were recorded at 600 nm after 48 h. […]

[6] = pH stability, residual antimicrobial activity; format: physicochemical; settings: for Residual activity (%), pH 2.0: pH 2.0 (10 mM HCl or NaOH)
Experimental: Sensitivity of purified peptides toward temperature, pH, and non-specific proteases was confirmed by performing bioassays. The pH stability was determined by adjusting the pH 2.0–12.0 of peptide aliquots (using 10 mM HCl or NaOH) and incubating for 4 h at room temperature. Samples were neutralized to pH 7.0 before processing for antimicrobial assay. To determine temperature susceptibility, peptides were incubated at different temperatures ranging from 37 to 100°C for 1 h and 121°C for 15 min and residual antimicrobial activity was determined at RT by well diffusion assay. Proteolytic enzymes trypsin and proteinase K (Sigma, United States) were used at three different concentrations (0.1, 1.0, and 5.0 mg/ml) to observe their effect on the peptide. The enzyme solutions were prepared in 50 mM phosphate buffer (pH 7.0). All reactions were performed at 37°C for 6 h followed by deactivation of enzyme by heating the solution in boiling water for 5 min before performing the activity assay.

[7] = tested on: C. rugos 470141 (clinical isolate); test: MIC, microtiter plate dilution assay; format: cell-based; settings: 5 × 10^5 CFU/ml, 37°C, OD600 after 48 h, triplicate
Experimental: as §1, §2

[8] = tested on: C. kefyr 410004 (clinical isolate); test: MIC, microtiter plate dilution assay; format: cell-based; settings: 5 × 10^5 CFU/ml, 37°C, OD600 after 48 h, triplicate
Experimental: as §1, §2

[9] = tested on: C. aurius 470126 (clinical isolate); test: MIC, microtiter plate dilution assay; format: cell-based; settings: 5 × 10^5 CFU/ml, 37°C, OD600 after 48 h, triplicate
Experimental: as §1, §2

[10] = tested on: C. krusei 440009 (clinical isolate); test: MIC, microtiter plate dilution assay; format: cell-based; settings: 5 × 10^5 CFU/ml, 37°C, OD600 after 48 h, triplicate
Experimental: as §1, §2

[11] = tested on: C. tropicalis MTCC 184; test: MIC, microtiter plate dilution assay; format: cell-based; settings: 5 × 10^5 CFU/ml, 37°C, OD600 after 48 h, triplicate
Experimental: as §1, §2

[12] = tested on: C. haemulonii 470125 (clinical isolate); test: MIC, microtiter plate dilution assay; format: cell-based; settings: 5 × 10^5 CFU/ml, 37°C, OD600 after 48 h, triplicate
Experimental: as §1, §2

[13] = tested on: C. inconsplicue MTCC 1074; test: MIC, microtiter plate dilution assay; format: cell-based; settings: 5 × 10^5 CFU/ml, 37°C, OD600 after 48 h, triplicate
Experimental: as §1, §2

[14] = tested on: S. anginosus MTCC1929; test: MIC, microtiter plate dilution assay; format: cell-based; settings: 5 × 10^5 CFU/ml, 37°C, OD600 after 24 h, triplicate
Experimental: as §1, §2

[15] = tested on: F. moniliforme MTCC 158; test: MIC against phytopathogenic fungi, 96-well microtiter plate assay; format: cell-based, Fusarium moniliforme; settings: 1 × 10^5 spores/ml in PDB, 25°C, OD600 after 48 h, triplicate
Experimental: as §1
as §4, with “assay. The peptide concentration was estimated using BCA protein assay (Thermo Fisher Scientific, United States) method as described by manufacturer.” for “assay.”

[16] = tested on: C. acutatum MTCC1037; test: as above; format: cell-based, Colletotrichum acutatum; settings: 1 × 10^5 spores/ml in PDB, 25°C, OD600 after 48 h, triplicate
Experimental: as §3, §4

[17] = Collapse drop assay (CDA); format: physicochemical; settings: 5 μl of peptide (10 μg/ml) on mineral oil, observed after 1 min
Experimental: The surfactant property of peptide was determined using the qualitative drop-collapse assay ([Youssef et al., 2004]). Mineral oil (2 μl) was added to 96-well microtiter plate and equilibrated for 24 h at 37°C. After equilibration 5 μl of purified peptides (10 μg/ml) were added to the surface of the oil and drop shape was observed after 1 min using magnifying glass. Triton X-100 and water were used as positive and negative control, respectively.

## Glu^1-Leu/Ile^2-Leu^3-Val^4-Asp^5-Leu^6-Leu/Ile^7 and a β-OH hexadecane fatty acid chain (lariat or depsi) [Lipopeptide A52, cyclic surfactin-like lipopeptide, 7 amino acids and C16 β-hydroxy fatty acid, 1061.9 Da, from B. subtilis strain A52]
[1]
  MIC value, C. albicans MTCC 1637: 28 µg/mL
[2]
  MIC value, C. albicans 400054: 16 µg/mL
[3]
  MIC value, C. albicans MTCC 227: 24 µg/mL
[4]
  MIC value, C. albicans MTCC 183: 12 µg/mL
[5]
  MIC value, B. subtilis MTCC 121: 2 µg/mL
[6]; 4h/ 25°C, neutralized to pH 7.0 before antimicrobial assay, listed as Lipopeptide
  Residual activity (%), pH 2.0: Nil
[6]; 4h/ 25°C, neutralized to pH 7.0 before antimicrobial assay, listed as surfactin-like lipopeptide
  Residual activity (%), pH 2.0: complete loss in activity
[6]; pH 4.0 (10 mM HCl or NaOH), 4h/ 25°C, neutralized to pH 7.0 before antimicrobial assay
  Residual activity (%), pH 4.0: 100%
[6]; pH 6.0 (10 mM HCl or NaOH), 4h/ 25°C, neutralized to pH 7.0 before antimicrobial assay
  Residual activity (%), pH 6.0: 100%
[6]; pH 7.0, 4h/ 25°C
  Residual activity (%), pH 7.0: 100%
[6]; pH 8.0 (10 mM HCl or NaOH), 4h/ 25°C, neutralized to pH 7.0 before antimicrobial assay
  Residual activity (%), pH 8.0: 100%
[6]; pH 10.0 (10 mM HCl or NaOH), 4h/ 25°C, neutralized to pH 7.0 before antimicrobial assay
  Residual activity (%), pH 10.0: 100%
[6]; pH 12.0 (10 mM HCl or NaOH), 4h/ 25°C, neutralized to pH 7.0 before antimicrobial assay
  Residual activity (%), pH 12.0: Nil
[7]
  MIC value, C. rugos 470141: 16 µg/mL
[8]
  MIC value, C. kefyr 410004: 26 µg/mL
[9]
  MIC value, C. aurius 470126: 26 µg/mL
[10]
  MIC value, C. krusei 440009: 12 µg/mL
[11]
  MIC value, C. tropicalis MTCC 184: 12 µg/mL
[12]
  MIC value, C. haemulonii 470125: 28 µg/mL
[13]
  MIC value, C. inconsplicue MTCC 1074: 16 µg/mL
[14]
  MIC value, S. anginosus MTCC1929: 4 µg/mL
[15]
  MIC value, F. moniliforme MTCC 158: 20 µg/mL
[16]
  MIC value, C. acutatum MTCC1037: 35 µg/mL
[17]
  drop collapse (surfactant property): positive
